Reference: patent US20160257697A1, “THIOPHENE-SUBSTITUTED TETRACYCLIC COMPOUNDS AND METHODS OFUSE THEREOF FOR THE TREATMENT OF VIRAL DISEASES” (priority 2013, published 2016)
Where two headings read alike, the source gives them in different places.

What was measured:
Test in all cases: microbe, parasite or virus in culture
Format in all cases: cell-based, Hepatitis C virus (HCV)
[1] = test system: HCV replicon 1AY93H; conditions: Replicon Assay A
How it was run: (§1)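 Replicon cells were seeded at 2000 cells/well with test compound in 0.5% DMSO and 5% FBS, then harvested on day 3. Replicon RNA was measured by multiplex TaqMan real-time RT-PCR, using cyclophilin RNA as the endogenous control and quantified against standard curves of HCV replicon total RNA.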

[2] = test system: HCV replicon 1A; conditions: Replicon Assay A
How it was run: as §1

[3] = test system: HCV replicon 2B; conditions: Replicon Assay A
How it was run: as §1

[4] = test system: HCV replicon 1AQ30D; conditions: Replicon Assay B
[5] = test system: HCV replicon 1B; conditions: Replicon Assay B
[6] = read-out: 1A Y93H IC50, replicon 1AY93H
[7] = read-out: 1A Q30D IC50, replicon 1AQ30D
[8] = replicon 1AY93H, read-out: 1A Y93H IC50
[9] = replicon 1AQ30D, read-out: 1A Q30D IC50
[10] = read-out: 1A Y93H IC50, HCV replicon 1A Y93H
[11] = read-out: 2B IC50, HCV replicon 2B
[12] = read-out: 1A Q30D IC50, HCV replicon 1A Q30D

Compound	IC50 [1, 6]	IC50 ([2]; replicon 1A)	IC50 ([3]; read-out: 2B IC50, replicon 2B)	IC50 [4, 7]	IC50 ([5]; replicon 1B)	IC50 ([2]; Hepatitis C virus, replicon 1A)	IC50 ([5]; Hepatitis C virus, replicon 1B)	also measured
CCc1ccc(C2Oc3cc(-c4cnc([C@@H]5CCCN5C(=O)[C@@H](NC(=O)OC)C(C)C)[nH]4)cc(F)c3-c3cc4cc(-c5cnc([C@@H]6C[C@H]7C[C@H]7N6C(=O)C(NC(=O)OC)C6CCOC(C)(C)C6)[nH]5)ccc4n32)s1 (single isomer, unassigned) [Compound 201]	0.002 nM	1.5 pM	0.008 nM	0.015 nM	2.2 pM	–	–	–
COC(=O)N[C@H](C(=O)N1CCC[C@H]1c1ncc(-c2cc(F)c3c(c2)OC(c2ccc(C4CC4)s2)n2c-3cc3cc(-c4cnc([C@@H]5CCCN5C(=O)[C@@H](NC(=O)OC)C5CCOCC5)[nH]4)ccc32)[nH]1)C1CCOCC1 (single isomer, unassigned) [Compound 279]	0.21 nM	–	0.017 nM	0.92 nM	–	2.3 pM	2.9 pM	–
COC(=O)N[C@H](C(=O)N1CCC[C@H]1c1ncc(-c2cc(F)c3c(c2)OC(c2ccc(C(F)F)s2)n2c-3cc3cc(-c4cnc([C@@H]5CCCN5C(=O)[C@@H](NC(=O)OC)C(C)C)[nH]4)ccc32)[nH]1)C(C)C (single isomer, unassigned) [Compound 45]	–	1.1 pM	–	–	1.1 pM	–	–	IC50 [1, 8]: 0.01 nM; IC50 ([3]; replicon 2B, read-out: 2B IC50): 0.044 nM; IC50 [4, 9]: 0.37 nM
COC(=O)N[C@H](C(=O)N1CCC[C@H]1c1ncc(-c2cc(F)c3c(c2)OC(c2ccc(C4CC4)s2)n2c-3c(F)c3cc(-c4cnc([C@@H]5CCCC5C(=O)[C@@H](NC(=O)OC)C5CCOCC5)[nH]4)ccc32)[nH]1)C(C)C (single isomer, unassigned) [Compound 362]	0.0775 nM	–	0.0486 nM	0.981 nM	–	1.1 pM	1.8 pM	–
COC(=O)N[C@H](C(=O)N1CCC[C@H]1c1ncc(-c2ccc3c(c2)OC(c2cc4ccccc4s2)n2c-3cc3cc(-c4cnc([C@@H]5CCCN5C(=O)[C@@H](NC(=O)OC)C5CCOCC5)[nH]4)ccc32)[nH]1)C1CCOCC1 (single isomer, unassigned) [Compound 262]	0.052 nM	–	0.019 nM	0.12 nM	–	4.2 pM	4 pM	–
COC(=O)N[C@H](C(=O)N1CCC[C@H]1c1ncc(-c2cc(F)c3c(c2)OC(c2ccc(-c4ccc(N=[N+]=[N-])cc4)s2)n2c-3cc3cc(-c4cnc([C@@H]5CCCN5C(=O)[C@@H](NC(=O)OC)C(C)C)[nH]4)ccc32)[nH]1)C(C)C (mixture of isomers) [Compound 264]	–	–	–	–	–	3.7 pM	4.3 pM	IC50 ([1]; Hepatitis C virus, read-out: 1A Y93H IC50 (nM), replicon 1AY93H): 0.029 nM; IC50 ([3]; Hepatitis C virus, read-out: 2B IC50 (nM), replicon 2B): 0.19 nM; IC50 ([4]; Hepatitis C virus, read-out: 1A Q30D IC50 (nM), replicon 1AQ30D): 0.7 nM
COC(=O)N[C@H](C(=O)N1CCC[C@H]1c1ncc(-c2cc(C)c3c(c2)OC(c2ccc(C4CC4)s2)n2c-3cc3cc(-c4cnc([C@@H]5C[C@H]6C[C@H]6N5C(=O)[C@@H](NC(=O)OC)C5CCOCC5)[nH]4)ccc32)[nH]1)C(C)C (single isomer, unassigned) [Compound 764]	–	–	–	–	–	–	–	IC50 [1, 10]: 0.0044 nM; IC50 ([2]; HCV replicon 1A): 3.6 pM; IC50 [3, 11]: 0.0052 nM; IC50 [4, 12]: 0.024 nM; IC50 ([5]; HCV replicon 1B): 2.2 pM
COC(=O)N[C@H](C(=O)N1CCC[C@H]1c1ncc(-c2cc(F)c3c(c2)OC(c2ccc(C4CC4)s2)n2c-3cc3cc(-c4cnc([C@@H]5CCCN5C(=O)[C@@H](NC(=O)OC)C(C)C)[nH]4)ccc32)[nH]1)C(C)C (single isomer, unassigned) [Compound 6]	–	1.9 pM	–	–	1.5 pM	–	–	IC50 [1, 8]: 0.011 nM; IC50 ([3]; replicon 2B, read-out: 2B IC50): 0.028 nM; IC50 [4, 9]: 0.32 nM
COC(=O)NC(C(=O)N1CCC[C@H]1c1ncc(-c2ccc3c(c2)cc2n3C(c3cc4ccccc4s3)Oc3cc(-c4cnc([C@@H]5CCCN5C(=O)[C@@H](NC(=O)OC)C(C)C)[nH]4)cc(F)c3-2)[nH]1)C1C[C@@H](C)O[C@@H](C)C1 (single isomer, unassigned) [Compound 641]	–	–	–	–	–	–	–	IC50 [1, 10]: 0.0079 nM; IC50 ([2]; HCV replicon 1A): 3.3 pM; IC50 [3, 11]: 0.0244 nM; IC50 [4, 12]: 0.306 nM; IC50 ([5]; HCV replicon 1B): 1.1 pM
